Source: patent US9226929B2, “Pharmaceutically active disubstituted triazine derivatives” (Bayer Intellectual Property GMBH, priority 2011, dated 2016)

What was measured:
CDK9/Cyclin T1 = biological target: T1, CDK9/Cyclin T1 (Homo sapiens, UniProt P50750); experiment: LanthaScreen Eu Kinase Binding Assay, CDK9/Cyclin T1; settings: tracer 236, read-out: CDK9/Cyclin T1 (activity range), Kd
T1 construct: His; purchased Invitrogen
Procedure: (§1) This protocol describes how the LanthaScreen Eu Kinase Binding Assay was performed to determine dissociation constants (Kd) of compounds of general formula (I) and CDK/Cyclin complexes. The principle behind this assay is based upon the binding and displacement of an Alexa Fluor 647-labeled tracer, which binds to the active site of kinases. Binding of the tracer to the kinase is detected using a Eu-labeled antibody. Simultaneous binding of both the tracer and antibody to the kinase gives rise to a FRET-signal. Binding of an inhibitor to the kinase competes for binding with the tracer, resulting in a loss of FRET.
(§2) The compounds of general formula (I) summarized in Table 1 were diluted from a 10 mM DMSO stock solution 1:10 in a total volume of 15 μL DMSO. This compound predilution was then serial diluted 1:3 over 8 steps in DMSO and briefly spun down. Each compound solution was now diluted 1:33.33 in kinase buffer (HEPES: 20 mM, pH: 8.0; MgCl2: 10 mM; DTT: 1 mM; Brij-35: 0,01%), mixed thoroughly and spun down. For every sample, 5 μL of the diluted compound were mixed with 5 μL tracer working solution (e.g. 60 nM tracer 236 in kinase buffer for CDK2/Cyclin A) and 5 μL CDK/Cyclin/Anti-GST-AB-working solution (e.g. 15 nM CDK2/Cyclin A, 1:250 dilution of Anti-GST-AB in kinase buffer) in a well of a small volume 384 well plate (Corning Incorporated, Corning, N.Y., USA; order no. 3673). The tracer concentration was adjusted to its dissociation constant (Kd) for the CDK/Cyclin, which was 30 nM for CDK2/Cyclin A, CDK7/Cyclin H and CDK9/Cyclin T1, 20 nM for CDK8/Cyclin C, and 35 nM for CDK9/Cyclin K. For negative controls, in each well 5 μL of DMSO working solution (3% DMSO diluted in kinase buffer) was mixed with 5 μL Anti-GST-AB working solution (e.g. 1:250 dilution of Anti-GST-AB in kinase buffer for CDK2/Cyclin A) and 5 μL Tracer working solution (e.g. 60 nM Tracer 236 in kinase buffer for CDK2/Cyclin A). For positive controls, in each well 5 μL of DMSO working solution (3% DMSO diluted in kinase buffer) was mixed with 5 μL CDK/Cyclin/Anti-GST-AB-working solution: (e.g. 15 nM CDK2/Cyclin A, 1:250 dilution of Anti-GST-AB in kinase buffer) and 5 μL Tracer working solution (e.g. 60 nM Tracer 236 in kinase buffer for CDK2/Cyclin A). Positive and negative controls were calculated from at least 8 different sample wells. The 384 well plates were mixed in a Teleshaker plate mixer (Beckman Coulter, Brea, Calif., USA) at 2000 rpm for 40 sec, and incubated for 1 h at room temperature before reading. The FRET signal was measured at 340 nm excitation, 665 nm and 615 nm emission (for the kinase tracer and LanthaScreen Eu-AB, respectively) with an Envision spectrophotometer (Perkin Elmer, Waltham, Mass., USA) with […]. Kd values were determined from the sigmoidal dose response curves with the software Quattro Workflow (Quattro GmbH, Munich, Germany).

CDK9/Cyclin K = biological target: T2, CDK9/Cyclin K (Homo sapiens, UniProt P50750); experiment: LanthaScreen Eu Kinase Binding Assay, CDK9/Cyclin K; settings: tracer 236, read-out: CDK9/Cyclin K (activity range), Kd
T2 construct: His; purchased Invitrogen
T2 sequence (P50750 whole entry): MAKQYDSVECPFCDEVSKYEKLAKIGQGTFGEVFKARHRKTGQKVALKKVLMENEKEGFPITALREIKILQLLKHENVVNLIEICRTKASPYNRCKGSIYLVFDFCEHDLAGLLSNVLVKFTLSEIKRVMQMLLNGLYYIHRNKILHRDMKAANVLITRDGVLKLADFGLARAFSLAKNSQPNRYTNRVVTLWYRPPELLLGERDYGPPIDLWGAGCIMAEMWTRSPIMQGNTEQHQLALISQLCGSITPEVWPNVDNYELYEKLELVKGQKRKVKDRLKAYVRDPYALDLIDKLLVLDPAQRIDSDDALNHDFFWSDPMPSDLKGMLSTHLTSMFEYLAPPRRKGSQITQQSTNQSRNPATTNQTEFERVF
T2 sequence (O75909 1-357 isoform O75909-1 partner): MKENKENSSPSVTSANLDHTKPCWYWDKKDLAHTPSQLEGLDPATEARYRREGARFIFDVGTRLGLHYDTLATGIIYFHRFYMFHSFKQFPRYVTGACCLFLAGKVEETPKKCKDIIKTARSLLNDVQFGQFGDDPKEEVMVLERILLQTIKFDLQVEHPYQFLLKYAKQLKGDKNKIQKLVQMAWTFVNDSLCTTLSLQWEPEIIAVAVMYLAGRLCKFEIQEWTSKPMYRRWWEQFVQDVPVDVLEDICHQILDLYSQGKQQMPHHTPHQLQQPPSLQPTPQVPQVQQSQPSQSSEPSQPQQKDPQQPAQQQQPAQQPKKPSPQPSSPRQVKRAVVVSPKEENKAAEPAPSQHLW
Procedure: as §1, §2

CDK7/CyclinH/MAT1 = biological target: T3, CDK7/CyclinH/MAT1 (Homo sapiens, UniProt P50613); experiment: LanthaScreen Eu Kinase Binding Assay, CDK7; settings: tracer 236, read-out: CDK7 (activity range), Kd
T3 construct: His; purchased Carna Biosciences
T3 sequence (P50613 whole entry): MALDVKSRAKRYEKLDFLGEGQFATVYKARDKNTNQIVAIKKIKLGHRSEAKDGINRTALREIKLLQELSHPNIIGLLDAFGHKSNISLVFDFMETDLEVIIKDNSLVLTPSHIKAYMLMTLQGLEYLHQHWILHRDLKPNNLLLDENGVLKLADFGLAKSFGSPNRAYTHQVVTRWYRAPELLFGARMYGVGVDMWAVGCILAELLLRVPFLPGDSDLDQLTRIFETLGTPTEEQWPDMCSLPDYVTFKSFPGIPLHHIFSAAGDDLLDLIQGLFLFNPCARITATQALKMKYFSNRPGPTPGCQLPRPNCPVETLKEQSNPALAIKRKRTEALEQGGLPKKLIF
T3 sequence (P51946 whole entry partner): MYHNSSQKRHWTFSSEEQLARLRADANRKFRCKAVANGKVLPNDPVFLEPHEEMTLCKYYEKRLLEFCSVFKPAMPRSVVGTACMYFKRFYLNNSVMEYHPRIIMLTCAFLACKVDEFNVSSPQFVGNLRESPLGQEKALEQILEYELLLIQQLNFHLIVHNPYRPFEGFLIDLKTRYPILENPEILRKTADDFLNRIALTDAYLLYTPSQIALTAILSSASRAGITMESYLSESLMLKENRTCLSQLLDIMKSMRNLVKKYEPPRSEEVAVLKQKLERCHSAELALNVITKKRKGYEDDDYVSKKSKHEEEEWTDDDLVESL
T3 sequence (P51948 whole entry partner): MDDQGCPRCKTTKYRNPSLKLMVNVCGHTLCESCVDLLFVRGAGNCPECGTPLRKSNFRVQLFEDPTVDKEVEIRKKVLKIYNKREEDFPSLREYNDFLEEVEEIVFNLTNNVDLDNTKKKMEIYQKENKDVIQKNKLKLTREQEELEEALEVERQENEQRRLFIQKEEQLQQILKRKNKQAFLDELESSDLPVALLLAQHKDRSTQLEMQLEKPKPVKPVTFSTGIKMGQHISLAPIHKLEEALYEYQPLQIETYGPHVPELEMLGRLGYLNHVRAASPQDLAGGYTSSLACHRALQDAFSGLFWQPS
Procedure: as §1, §2

T1 sequence (P50750 whole entry): as the sequence (P50750 whole entry) above
T1 sequence (O60563 whole entry partner): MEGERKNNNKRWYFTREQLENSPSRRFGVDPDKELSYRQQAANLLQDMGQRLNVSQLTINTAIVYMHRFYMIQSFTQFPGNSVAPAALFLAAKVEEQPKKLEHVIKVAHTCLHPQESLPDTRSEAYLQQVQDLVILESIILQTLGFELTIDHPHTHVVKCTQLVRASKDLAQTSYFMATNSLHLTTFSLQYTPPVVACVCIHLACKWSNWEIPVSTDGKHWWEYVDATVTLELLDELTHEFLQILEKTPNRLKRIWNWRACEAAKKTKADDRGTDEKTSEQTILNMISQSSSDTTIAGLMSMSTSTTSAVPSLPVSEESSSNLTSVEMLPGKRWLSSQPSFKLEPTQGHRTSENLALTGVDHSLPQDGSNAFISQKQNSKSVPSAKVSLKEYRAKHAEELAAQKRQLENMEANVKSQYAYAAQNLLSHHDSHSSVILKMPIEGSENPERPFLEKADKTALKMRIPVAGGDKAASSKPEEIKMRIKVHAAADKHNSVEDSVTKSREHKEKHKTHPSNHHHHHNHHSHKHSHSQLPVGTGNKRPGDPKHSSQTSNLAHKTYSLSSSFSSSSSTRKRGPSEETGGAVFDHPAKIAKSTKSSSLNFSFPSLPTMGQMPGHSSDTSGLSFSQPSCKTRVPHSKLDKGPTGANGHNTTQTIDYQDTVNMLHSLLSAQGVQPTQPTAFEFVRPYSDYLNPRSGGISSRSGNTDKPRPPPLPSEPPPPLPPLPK

Compound	Kd (CDK9/Cyclin T1) [µM]	Kd (CDK9/Cyclin K) [µM]	Kd (CDK7/CyclinH/MAT1) [µM]
COCC1CCCCN1c1ncnc(Nc2cccc(CS(N)(=O)=O)c2)n1 (racemic) [Compound B4, rac-3-[(4-(2-Methoxymethylpiperidin-1-yl)-1,3,5-triazin-2-yl)amino]-benzenemethanesulfonamide]	0.1 to 1	0.1 to 1	> 10
CC(C)(C)OC(=O)NCC1CCCCN1c1ncnc(Nc2cccc(CS(N)(=O)=O)c2)n1 (racemic) [Compound B7, rac-tert-Butyl[(1-(4-((3-(Sulfamoylmethyl)phenyl)amino)-1,3,5-triazin-2-yl)piperidine-2-yl)methyl]carbamate]	> 10	> 10	> 10
NS(=O)(=O)Cc1cccc(Nc2ncnc(N3CCCCC3c3ccccc3)n2)c1 (racemic) [Compound B9, rac-3-[(4-(2-Phenylpiperidin-1-yl)-1,3,5-triazin-2-yl)amino]-benzenemethanesulfonamide]	0.1 to 1	0.1 to 1	> 10
NS(=O)(=O)Cc1cccc(Nc2ncnc(N3CCNCC3CO)n2)c1 (racemic) [Compound B13, rac-3-[(4-(2-(Hydroxymethyl)piperazin-1-yl)-1,3,5-triazin-2-yl)amino]benzenemethanesulfonamide]	> 10	> 10	
NS(=O)(=O)Cc1cccc(Nc2ncnc(N3CCCC3Cc3ccccc3)n2)c1 (racemic) [Compound B26, rac-3-[(4-(2-Benzylpyrrolidin-1-yl)-1,3,5-triazin-2-yl)amino]-benzenemethanesulfonamide]	0.1 to 1	0.1 to 1	> 10
NS(=O)(=O)Cc1cccc(Nc2ncnc(N3CCCC3CCc3ccccc3)n2)c1 (racemic) [Compound B27, rac-3-[(4-(2-(2-Phenylethyl)pyrrolidin-1-yl)-1,3,5-triazin-2-yl)amino]-benzenemethanesulfonamide]	1 to 10	1 to 10	> 10
NS(=O)(=O)Cc1cccc(Nc2ncnc(N3CCC3c3ccccc3)n2)c1 (racemic) [Compound B37, rac-3-[(4-(2-Phenylazetidin-1-yl)-1,3,5-triazin-2-yl)amino]-benzenemethanesulfonamide]	0.1 to 1	0.1 to 1	> 10
NS(=O)(=O)Cc1cccc(Nc2ncnc(N3CCC(F)(F)CC3)n2)c1 [Compound B2, 3-[(4-(4,4-Difluoropiperidin-1-yl)-1,3,5-triazin-2-yl)amino]-benzenemethanesulfonamide]	0.1 to 1	0.1 to 1	> 10
NS(=O)(=O)Cc1cccc(Nc2ncnc(N3CCCC(F)(F)C3)n2)c1 [Compound B3, 3-[(4-(3,3-Difluoropiperidin-1-yl)-1,3,5-triazin-2-yl)amino]-benzenemethanesulfonamide]	0.1 to 1	0.1 to 1	> 10
COC(=O)[C@H]1CCCCN1c1ncnc(Nc2cccc(CS(N)(=O)=O)c2)n1 [Compound B6, (R)-Methyl 1-[4-((3-(Sulfamoylmethyl)phenyl)amino)-1,3,5-triazin-2-yl]piperidine-2-carboxylate]	< 0.1	0.1 to 1	> 10
NS(=O)(=O)Cc1cccc(Nc2ncnc(N3CCNCC3)n2)c1 [Compound B11, 3-[(4-(piperazin-1-yl)-1,3,5-triazin-2-yl)amino]benzenemethane sulfonamide]	> 10	> 10	> 10
CN1CCN(c2ncnc(Nc3cccc(CS(N)(=O)=O)c3)n2)CC1 [Compound B12, 3-[(4-(4-Methylpiperazin-1-yl)-1,3,5-triazin-2-yl)amino]-benzenemethanesulfonamide]	> 10	> 10	> 10
NS(=O)(=O)Cc1cccc(Nc2ncnc(N3CCCC3)n2)c1 [Compound B14, 3-[(4-(Pyrrolidin-1-yl)-1,3,5-triazin-2-yl)amino]benzenemethane sulfonamide]	0.1 to 1	1 to 10	> 10
C[C@@H]1CCCN1c1ncnc(Nc2cccc(CS(N)(=O)=O)c2)n1 [Compound B15, (R)-3-[(4-(2-Methylpyrrolidin-1-yl)-1,3,5-triazin-2-yl)amino]-benzenemethanesulfonamide]	0.1 to 1	1 to 10	> 10
NS(=O)(=O)Cc1cccc(Nc2ncnc(N3CCC[C@H]3C(F)(F)F)n2)c1 [Compound B16, (S)-3-[(4-(2-(Trifluoromethyl)pyrrolidin-1-yl)-1,3,5-triazin-2-yl)amino]-benzenemethanesulfonamide]	0.1 to 1	1 to 10	> 10
COC[C@H]1CC[C@H](COC)N1c1ncnc(Nc2cccc(CS(N)(=O)=O)c2)n1 [Compound B19, 3-[(4-((2R,5R)-Bis(methoxymethyl)pyrrolidin-1-yl)-1,3,5-triazin-2-yl)amino]benzenemethanesulfonamide]	> 10	> 10	> 10
COC[C@@H]1CC[C@@H](COC)N1c1ncnc(Nc2cccc(CS(N)(=O)=O)c2)n1 [Compound B20]	> 10	> 10	> 10
COC(=O)[C@@H]1CCCN1c1ncnc(Nc2cccc(CS(N)(=O)=O)c2)n1 [Compound B22, (S)-Methyl 1-[4-((3-(Sulfamoylmethyl)phenyl)amino)-1,3,5-triazin-2-yl]pyrrolidine-2-carboxylate]	> 10	> 10	> 10
NC(=O)[C@H]1CCCN1c1ncnc(Nc2cccc(CS(N)(=O)=O)c2)n1 [Compound B23, (R)-1-[4-((3-(Sulfamoylmethyl)phenyl)amino)-1,3,5-triazin-2-yl]pyrrolidine-2-carboxamide]	> 10	> 10	> 10
NS(=O)(=O)Cc1cccc(Nc2ncnc(N3CCC[C@@H]3COc3ccccc3)n2)c1 [Compound B28, (R)-3-[(4-(2-(Phenoxymethyl)pyrrolidin-1-yl)-1,3,5-triazin-2-yl)amino]-benzenemethanesulfonamide]	1 to 10	1 to 10	> 10
NS(=O)(=O)Cc1cccc(Nc2ncnc(N3CCC[C@@H]3CNc3ccccc3)n2)c1 [Compound B29, (R)-3-[(4-(2-(Phenylamino-methyl)pyrrolidin-1-yl)-1,3,5-triazin-2-yl)amino]benzenemethanesulfonamide]	1 to 10	1 to 10	> 10
NS(=O)(=O)Cc1cccc(Nc2ncnc(N3CCC[C@H]3CN3CCCC3)n2)c1 [Compound B32, (S)-3-[(4-(2-((Pyrrolidin-1-yl)methyl)pyrrolidin-1-yl)-1,3,5-triazin-2-yl)amino]benzenemethanesulfonamide]	> 10	> 10	> 10
COC(=O)[C@H]1CCN1c1ncnc(Nc2cccc(CS(N)(=O)=O)c2)n1 [Compound B36, (R)-Methyl 1-[4-((3-(Sulfamoylmethyl)phenyl)amino)-1,3,5-triazin-2-yl]azetidine-2-carboxylate]	1 to 10	1 to 10	> 10
NS(=O)(=O)Cc1cccc(Nc2ncnc(N3CCc4ncncc4C3)n2)c1 [Compound B39, 3-[(4-(7,8-Dihydropyrido[4,3-d]pyrimidin-6(5H)-yl)-1,3,5-triazin-2-yl)amino]benzenemethanesulfonamide]	0.1 to 1	1 to 10	> 10
NS(=O)(=O)Cc1cccc(Nc2ncnc(N3CCc4ccccc4C3)n2)c1 [Compound B40, 3-[(4-(3,4-Dihydroisoquinolin-2(1H)-yl)-1,3,5-triazin-2-yl)amino]-benzenemethanesulfonamide]	1 to 10	1 to 10	> 10
